{
  "source": "patent US10905657B2",
  "about": "“Solid dispersions of Coenzyme Q10” (Indena S.P.A., priority 2015, dated 2021)",
  "assay": "Pharmacokinetic study in rats after single oral dose",
  "settings": "male, Sprague-Dawley, rat, in vivo, 50 mg/kg, intragastric gavage, single dose 50 mg Coenzyme Q10/Kg, suspended in 1% carboxymethyl cellulose, plasma",
  "procedure": "Pharmacokinetic parameters (Tmax, Cmax, absolute bioavailability) were determined in rats after the oral administration of a single dose of Coenzyme Q10 as crystalline powder and as solid dispersion with phospholipids.\nMale Sprague-Dawley rats, weighting 300-350 g were used for the pharmacokinetic experiment. Rats were fasted 16 hours before administration with free access to water.\nCoenzyme Q10 as crystalline powder and as solid dispersion with phospholipids were suspended in 1% carboxymethyl cellulose water suspension and administered by intragastric gavage as a single dose of 50 mg of Coenzyme Q10/Kg.\nBlood samples were collected from tail vein after 0.5-1.0-2.0-4.0-8.0-12.0 and 24 hours after administration.\nPlasma was obtained from blood samples by centrifugation at 5.000×g for 15 minutes and kept frozen (−20° C.) until analysis. After protein sedimentation, Coenzyme Q10 was extracted by plasma samples with n-hexane; the extraction step with hexane was repeated for three times. The hexane phases, separated by centrifugation, were collected and the solvent was removed by evaporation under nitrogen. The residue was dissolved in 2-propanol for HPLC/MS analysis at 275 nm, using internal standard method for Coenzyme Q10 quantification.\nThe following pharmacokinetic parameters were calculated: […]",
  "data": [
    {"smiles": "COC1=C(OC)C(=O)C(C/C=C(\\C)CC/C=C(\\C)CC/C=C(\\C)CC/C=C(\\C)CC/C=C(\\C)CC/C=C(\\C)CC/C=C(\\C)CC/C=C(\\C)CC/C=C(\\C)CCC=C(C)C)=C(C)C1=O", "note": "[Crystalline Coenzyme Q10, Coenzyme Q10]", "values": [
      {"measurement": "Cmax", "result": 230, "unit": "ng/mL"},
      {"measurement": "Tmax", "result": 3.8, "unit": "h"},
      {"measurement": "AUC(0-t)", "setting": "0-24 hours", "result": 4100, "unit": "ng·h/mL"}
    ]}
  ]
}
